Results reported in patent US7138113B2, “Glycoprotein matrix compositions and methods related thereto” (Pharmachem Laboratories, Inc., priority 2001, dated 2006).

Columns and labels:
[1] = tested on: lower density lipoproteins (LDL+VLDL); assay: Inhibition of cupric ion oxidation of lower density lipoproteins (quality of antioxidant activity); conditions: 6 hours
[2] = Stability of CoQ10 in a 50° C. oven open to the air (HPLC); assay type: physicochemical; conditions: for Loss of CoQ10 after 36 days at 50° C. (equivalent to 3 months at room temperature) / Loss of CoQ10 after 72 days at 50° C. (equivalent to 6 months at room temperature): open to the air
Procedure: 100 mg of USP CoQ10 (Sigma) and a composition from Example 1 was placed in a 10 ml beaker in a 50° C. oven open to the air. The amount of CoQ10 remaining was analyzed by HPLC using a C18 column (Perkin Elmer Pecosil 5, 15 cm) and a solvent of 75% methanol and 25% isopropanol.

SMILES | IC50 ([1]; concentration of selenium to inhibit LDL+VLDL oxidation 50%, cupric ion) [µM] | IC50 ([1]; LDL+VLDL oxidation, 25 μM cupric ion, 37° C., based on CoQ10 conc.) [µM] | Loss of CoQ10 at 0 days ([2]; 0 days) [%] | Loss of CoQ10 after 36 days at 50° C. (equivalent to 3 months at room temperature) ([2]; listed as USP CoQ10) [%] | Loss of CoQ10 after 36 days at 50° C. (equivalent to 3 months at room temperature) ([2]; listed as commercial CoQ10) [%] | Loss of CoQ10 after 72 days at 50° C. (equivalent to 6 months at room temperature) ([2]; listed as USP CoQ10) [%] | Loss of CoQ10 after 72 days at 50° C. (equivalent to 6 months at room temperature) ([2]; listed as commercial sample) [%]
C[Se]CC[C@H](N)C(=O)O [Selenomethionine] | 27 | – | – | – | – | – | –
COC1=C(OC)C(=O)C(C/C=C(\C)CC/C=C(\C)CC/C=C(\C)CC/C=C(\C)CC/C=C(\C)CC/C=C(\C)CC/C=C(\C)CC/C=C(\C)CC/C=C(\C)CCC=C(C)C)=C(C)C1=O [CoQ10 (USP), CoEnzyme Q10] | – | 1.33 | 0 | 6.8 | 6.8 | 16.8 | 16.8
